Measured values reported in PubChem BioAssay (NCI).
“And” between values parts separate entries of the source, which are not always exact repeats. Equal values may be shown once.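 How tested: cells in 96-well plates exposed to compound for 48 hours at five concentrations. GI50 marks 50% less growth. Definition used: TGI = concentration required for complete inhibition of growth.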

Columns and labels:
Experiment in all cases: DTP human tumour cell line panel, 48 h
OVCAR-3 ovarian = tested on: OVCAR-3 ovarian
KM12 colon = tested on: KM12 colon
HCT-116 colon = tested on: HCT-116 colon
OVCAR-8 ovarian = tested on: OVCAR-8 ovarian
COLO 205 colon = tested on: COLO 205 colon
HOP-92 NSCLC = tested on: HOP-92 NSCLC
ACHN renal = tested on: ACHN renal
BT-549 breast = tested on: BT-549 breast

SMILES | TGI (OVCAR-3 ovarian) | TGI (KM12 colon) | TGI (HCT-116 colon) | TGI (OVCAR-8 ovarian) | TGI (COLO 205 colon) | TGI (HOP-92 NSCLC) | TGI (ACHN renal) | GI50 (OVCAR-3 ovarian) | GI50 (KM12 colon) | GI50 (HCT-116 colon) | GI50 (OVCAR-8 ovarian) | GI50 (BT-549 breast) | TGI (BT-549 breast) | GI50 (COLO 205 colon) | GI50 (HOP-92 NSCLC) | GI50 (ACHN renal)
CC(C)(C)[Si](C)(C)OCC1OC(n2cnc3c(NC(=O)c4ccccc4)ncnc32)CC1O (stereo not given) | 81.1 µM | 87.4 µM | 70.5 µM | > 100 µM | 33.1 µM | 55.2 µM | 95.4 µM | – | – | – | – | – | – | – | – | –
CC1/C=C/C=C/C=C/C=C/C=C/C=C/C=C/C(O[C@@H]2O[C@H](C)[C@H](O)[C@@H](O)[C@@H]2N)CC(O)C(C(=O)O)C(O)CC(=O)CC(O)CC(O)CC(O)CC(=O)CCCC(=O)CC(=O)OC1C(C)CC(C)C(O)CC(=O)c1ccc(N)cc1 (stereo not given in full) | – | – | 0.103 µM and 0.485 µM | 0.152 µM and 1.23 µM | 1.72 µM | 0.537 µM | 0.106 µM and 0.319 µM | 0.0631 µM and 0.374 µM | 0.0694 µM and 0.574 µM | 0.0581 µM and 0.219 µM | 0.0701 µM and 0.347 µM | 0.213 µM | 0.444 µM | 0.559 µM | 0.184 µM | 0.057 µM and 0.18 µM
CC(=O)c1c(C(F)(F)F)n([O-])c2ccc(Cl)cc2[n+]1=O | 8.13 µM | 2.39 µM | – | 20.4 µM | – | 2.9 µM | 4.96 µM | 2.64 µM | 0.364 µM | 0.662 µM | 3.66 µM | 1.14 µM | 2.65 µM | 1.77 µM | 1.23 µM | 0.69 µM
O=C1C(Br)=CC2(C=C1Br)CCN=c1c2c(O)c2nc3ccccc3c3ccnc1c23 | 8.14 µM | 8.67 µM | 6.15 µM | 2.39 µM | 3.03 µM | 2.38 µM | 1.7 µM | 1.51 µM | 2.42 µM | 0.674 µM | 0.918 µM | 5.83 µM | 12.2 µM | 1.05 µM | 0.593 µM | 0.753 µM
C=C1C[C@](OC)([C@H](O)C(=O)N[C@@H](OC)[C@@H]2C[C@@H](O)C(C)(C)[C@@H](C[C@@H](COC)OC)O2)O[C@H](C)[C@@H]1C | 0.00368 µM | 0.00339 µM | 0.0104 µM | 0.0096 µM | 0.00342 µM | 0.00889 µM | 0.0114 µM | 0.00117 µM | 0.000861 µM | 0.00168 µM | 0.00322 µM | 0.00118 µM | 0.00326 µM | 0.00123 µM | 0.00286 µM | 0.00233 µM
COc1cc(NCCCCN=C(N)NC(N)=NC(C)C)c2ncccc2c1 | 0.897 µM | 11.8 µM | 11.1 µM | 27.7 µM | 4.46 µM | 12.5 µM | > 100 µM | 0.311 µM | 1.48 µM | 2.26 µM | 8.18 µM | 9.6 µM | 23.9 µM | 0.987 µM | 1.28 µM | > 73.7 µM
COc1ccc(C(=O)c2ccc(OC)c(OC)c2OC)cc1 | 2.86 µM | 25.2 µM | > 100 µM | > 100 µM | 3.13 µM | > 100 µM | > 100 µM | 0.773 µM | 0.492 µM | 2.19 µM | 3 µM | 6.16 µM | > 100 µM | 1.14 µM | 5.4 µM | 6.56 µM
O=C(O)C1C(C(=O)Nc2ccc3c(c2)Cc2ccccc2-3)C2(Cl)C(Cl)=C(Cl)C1(Cl)C2(Cl)Cl (stereo not given) | 35.9 µM | 39 µM | 38.1 µM | 43 µM | 31.4 µM | 57.3 µM | > 100 µM | – | – | – | – | – | 39.2 µM | – | – | –
NC(=NCCCOc1ccc(Cl)cc1)Nc1ccc(Cl)cc1 | 8.09 µM | – | 3.24 µM | 12.1 µM | 2.75 µM | 5.53 µM | 5.31 µM | 2.84 µM | – | 1.61 µM | 3.16 µM | 3.35 µM | 10 µM | 1.17 µM | 1.51 µM | 2.01 µM
COc1cc2c(cc1OCCOS(C)(=O)=O)N=C[C@@H]1CCCN1C2=O | 31.3 µM | > 100 µM | 36.5 µM | > 100 µM | > 100 µM | 50.6 µM | 29.5 µM | 16.3 µM | – | 18.5 µM | – | – | – | – | – | 16 µM
CC(C)C1OC(=O)C=C1Sc1ccccc1 (stereo not given) | > 100 µM | > 100 µM | > 100 µM | > 100 µM | > 100 µM | – | > 100 µM | – | – | – | – | – | > 100 µM | – | – | –
Cc1cccc(Oc2nccc(-c3c(-c4ccc(F)cc4)ncn3C3CCNCC3)n2)c1C | > 25 µM | > 23.8 µM | > 17.8 µM | > 23.5 µM | 8.03 µM | – | > 25 µM | 14.3 µM | 11.2 µM | 7.26 µM | 10.7 µM | 10.9 µM | > 19.6 µM | 4.21 µM | – | 6.11 µM
Cc1ccc(C2NC(=S)NC3=C2CCOc2c3ccc3ccccc23)cc1 (stereo not given) | – | > 100 µM | > 100 µM | > 100 µM | > 100 µM | > 100 µM | > 100 µM | – | 8.25 µM | > 100 µM | > 100 µM | – | – | 9.64 µM | 39.8 µM | 44 µM
CCOC(=O)c1sc2nc3sc(N=Nc4ccc(Cl)cc4)c(O)n3c(=S)c2c1C | > 100 µM | > 100 µM | > 100 µM | 95.6 µM | > 100 µM | 45.8 µM | 54.3 µM | 36.7 µM | 31.2 µM | 33.8 µM | 29.4 µM | – | – | 17.7 µM | 7.47 µM | 16.5 µM
CSc1cnn(CCC#N)c(=O)n1 | – | > 100 µM | > 100 µM | > 100 µM | > 100 µM | – | > 100 µM | – | – | – | – | – | > 100 µM | – | – | –
CC(=O)c1ccc(NC(=O)CSc2nnc(-c3cc(-c4ccc(C)cc4)nc4ccccc34)o2)cc1 | > 100 µM | – | 6.1 µM | 4.9 µM | > 100 µM | 6.3 µM | – | 3.22 µM | – | 2.25 µM | 2.28 µM | 2.44 µM | 7.89 µM | 6.54 µM | 2.59 µM | –
O=C(OCc1ccccc1)N1CCN(/[N+]([O-])=N/Oc2ccc([N+](=O)[O-])cc2[N+](=O)[O-])CC1 | 6.96 µM | 24.2 µM | 7.55 µM | > 100 µM | 18.6 µM | – | 26.6 µM | 3.01 µM | 8.66 µM | 2.15 µM | 31.5 µM | 8.15 µM | 23.4 µM | 4.35 µM | – | 7.12 µM
